Test results from patent US7728146B2, “Enzyme inhibitors” (Probiodrug AG, priority 2006, dated 2010).
Read-outs that look alike come from different tables or passages of the source.

Molecular target: DP IV (Homo sapiens, UniProt P27487)
Assay: DP IV inhibition IC50, parallel-synthesis compounds tested directly following synthesis (without purification)
Format: biochemical
Parameters: IC50 DP4; other: tested directly following parallel synthesis, without purification; compounds of formula (Ib) from parallel synthesis, tested directly following synthesis
In short: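 IC50 came from a 4-parameter fit of residual activity (linear 405 nm slopes for pNA release over ~18 min, relative to solvent-only wells). Gly-Pro-pNA was the substrate, cleaved by porcine kidney or recombinant human DP IV at room temperature in HEPES with 5% DMSO; duplicate 1:2 series started at 100 μM final.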

[1] = tested directly following parallel synthesis, without purification, read-out: IC50 DP4
[2] = DP IV inhibition, compounds of formula (Ib) from parallel synthesis, tested directly following synthesis (without purification), read-out: IC50

Row | Structure (SMILES) | IC50 [1] | IC50 [2]
1 | CCOc1ccccc1Cn1cnc(-c2ccc(F)cc2Cl)c1CN [Example 18a, C-[5-(2-Chloro-4-fluoro-phenyl)-3-(2-ethoxy-benzyl)-3H-imidazol-4-yl]-methylamine] | 6.4 µM | 
2 | NCc1c(-c2ccc(F)cc2Cl)ncn1Cc1ccccc1C(F)(F)F [Example 19a, C-[5-(2-Chloro-4-fluoro-phenyl)-3-(2-tri-fluorometh-yl-benzyl)-3H-imid-azol-4-yl]-methyl-amine] | 35.2 µM | 
3 | NCc1c(-c2ccc(F)cc2Cl)ncn1Cc1cccc(Cl)c1Cl [Example 20a, C-[5-(2-Chloro-4-fluoro-phenyl)-3-(2,3-di-chloro-benzyl)-3H-imid-azol-4-yl]-meth-ylamine] | 34.3 µM | 
4 | CC(C)(C)Cn1cnc(-c2ccc(F)cc2Cl)c1CN [Example 21a, C-[5-(2-Chloro-4-fluoro-phenyl)-3-(2,2-di-methyl-propyl)-3H-imid-azol-4-yl]-methyl-amine] | 35.2 µM | 
5 | NCc1c(-c2ccc(F)cc2Cl)ncn1Cc1ccc(Cl)cc1 [Example 22a, C-[3-(4-Chloro-benzyl)-5-(2-chloro-4-fluoro-phenyl)-3H-imid-azol-4-yl]-methyl-amine] | 37.9 µM | 
6 | NCc1c(-c2ccc(F)cc2Cl)ncn1Cc1ccccc1OC(F)(F)F [Example 23a, C-[5-(2-Chloro-4-fluoro-phenyl)-3-(2-tri-fluoromethoxy-benzyl)-3H-imid-azl-4-yl]-methyl-amine] | 5.5 µM | 
7 | Cc1ccc(Cn2cnc(-c3ccc(F)cc3Cl)c2CN)cc1 [Example 24a, C-[5-(2-Chloro-4-fluoro-phenyl)-3-(4-methyl-benzyl)-3H-imid-dazol-4-yl]-methyl-amine] | 43.3 µM | 
8 | NCc1c(-c2ccc(F)cc2Cl)ncn1Cc1ccc(Cl)c(Cl)c1 [Example 25a, C-[5-(2-Chloro-4-fluoro-phenyl)-3-(3,4-di-chloro-benzyl)-3H-imid-azol-4-yl]-methyl-amine] | 33.4 µM | 
9 | NCc1c(-c2ccc(F)cc2Cl)ncn1Cc1c(Cl)cccc1Cl [Example 26a, C-[5-(2-Chloro-4-fluoro-phenyl)-3-(2,6-di-chloro-benzyl)-3H-imid-azol-4-yl]-methyl-amine] | 39.7 µM | 
10 | NCc1c(-c2ccc(F)cc2Cl)ncn1Cc1cc(F)ccc1F [Example 27a, C-[5-(2-Chloro-4-fluoro-phenyl)-3-(2,5-difluoro-benzyl)-3H-imid-azol-4-yl]-methyl-amine] | 22.6 µM | 
11 | NCc1c(-c2ccc(F)cc2Cl)ncn1Cc1ccccc1F [Example 28a, C-[5-(2-Chloro-4-fluoro-phenyl)-3-(2-fluoro-benzyl)-3H-imid-azol-4-yl]-methyl-amine] | 19 µM | 
12 | NCc1c(-c2ccc(Cl)cc2Cl)ncn1Cc1cccc(F)c1 [Example 28b, C-[5-(2,4-dichloro-phenyl)-3-(3-fluoro-benzyl)-3H-imidazol-4-yl]-methylamine] |  | 1.9 µM
13 | NCc1c(-c2ccc(F)cc2Cl)ncn1Cc1ccc(F)cc1Cl [Example 29a, C-[3-(2-Chloro-4-fluoro-benzyl)-5-(2-chlo-ro-4-fluoro-phenyl)-3H-imid-azol-4-yl]-methyl-amine] | 31.6 µM | 
14 | NCc1c(-c2ccc(F)cc2Cl)ncn1Cc1ccccn1 [Example 30a, C-[5-(2-Chloro-4-fluoro-phenyl)-3-pyri-din-2-yl-methyl-3H-imid-azol-4-yl]-methyl-amine] | 25.3 µM | 
15 | NCc1c(-c2ccc(F)cc2Cl)ncn1Cc1cccnc1 [Example 31a, C-[5-(2-Chloro-4-fluoro-phenyl)-3-pyri-din-3-ylmethyl-3H-imid-azol-4-yl]-methyl-amine] | 5.5 µM | 
16 | COc1cccc(Cn2cnc(-c3ccc(Cl)cc3Cl)c2CN)c1 [Example 41a, C-[5-(2,4-Dichloro-phenyl)-3-(3-methoxy-benzyl)-3H-imid-azol-4-yl]-methyl-amine] | 0.1 µM | 
17 | NCc1c(-c2ccc(Cl)cc2Cl)ncn1Cc1ccsc1 [Example 43a, C-[5-(2,4-Dichloro-phenyl)-3-thio-phen-3-yl-methyl-3H-imid-azol-4-yl]-methyl-amine] | 0.1 µM | 
18 | NCc1c(-c2ccc(Cl)cc2Cl)ncn1Cc1ccccc1 [Example 47a, C-[3-Ben-zyl-5-(2,4-dichloro-phenyl)-3H-imid-azol-4-yl]-methyl-amine] | 0.1 µM | 

Second part, the compound after the results:

Row | IC50 [1] | IC50 [2] | Structure (SMILES)
19 | 0.1 µM |  | NCc1c(-c2ccc(Cl)cc2Cl)ncn1Cc1cccs1 [Example 32a, C-[5-(2,4-Di-chloro-phenyl)-3-thio-phen-2-yl-methyl-3H-imid-azol-4-yl]-methyl-amine]
20 |  | 15.4 µM | NCc1c(-c2ccc(Cl)cc2Cl)ncn1CCc1ccc(Cl)cc1Cl [Example 32b, C-{5-(2,4-dichloro-phenyl)-3-[2-(2,4-dichloro-phenyl)-ethyl]-3H-imidazol-4-yl}-methylamine]
21 | 0.1 µM |  | NCc1c(-c2ccc(Cl)cc2Cl)ncn1Cc1ccco1 [Example 33a, C-[5-(2,4-Dichloro-phenyl)-3-furan-2-ylmethyl-3H-imidazol-4-yl]-methylamine]
22 |  | 4.6 µM | Cc1ccccc1Cn1cnc(-c2ccc(Cl)cc2Cl)c1CN [Example 33b, C-[5-(2,4-dichloro-phenyl)-3-(2-methyl-benzyl)-3H-imidazol-4-yl]-methylamine]
23 | 1 µM |  | NCc1c(-c2ccc(Cl)cc2Cl)ncn1Cc1ccccc1Cl [Example 34a, C-[3-(2-Chloro-benzyl)-5-(2,4-di-chloro-phenyl)-3H-imid-azol-4-yl]-methyl-amine]
24 | 0.1 µM |  | NCc1c(-c2ccc(Cl)cc2Cl)ncn1Cc1ccc(F)cc1 [Example 36a, C-[5-(2,4-Dichloro-phenyl)-3-(4-fluoro-benzyl)-3H-imid-azol-4-yl]-methyl-amine]
25 | 4.6 µM |  | NCc1c(-c2ccc(Cl)cc2Cl)ncn1Cc1c(F)cccc1F [Example 37a, C-[5-(2,4-Dichloro-phenyl)-3-(2,6-difluoro-benzyl)-3H-imid-azol-4-yl]-methyl-amine]
26 | 1 µM |  | NCc1c(-c2ccc(Cl)cc2Cl)ncn1Cc1cccc(C(F)(F)F)c1 [Example 38a, C-[5-(2,4-Dichloro-phenyl)-3-(3-tri-fluoromethyl-benzyl)-3H-imid-azol-4-yl]-methyl-amine]
27 | 1 µM |  | NCc1c(-c2ccc(Cl)cc2Cl)ncn1Cc1ccc(F)cc1F [Example 39a, C-[5-(2,4-Dichloro-phenyl)-3-(2,4-difluoro-benzyl)-3H-imid-azol-4-yl]-methyl-amine]
28 | 3.7 µM |  | CCCn1cnc(-c2ccc(Cl)cc2Cl)c1CN [Example 40a, C-[5-(2,4-Dichloro-phenyl)-3-pro-pyl-3H-imid-azol-4-yl]-methyl-amine]
29 | 1 µM |  | NCc1c(-c2ccc(Cl)cc2Cl)ncn1Cc1cccc(F)c1 [Example 42a, C-[5-(2,4-Dichloro-phenyl)-3-(3-fluoro-benzyl)-3H-imid-azol-4-yl]-methyl-amine]
30 | 30.7 µM |  | NCc1c(-c2ccc(Cl)cc2Cl)ncn1Cc1cc(Br)ccc1F [Example 44a, C-[3-(5-Bromo-2-fluoro-benzyl)-5-(2,4-dichloro-phenyl)-3H-imid-azol-4-yl]-methyl-amine]
31 | 1.9 µM |  | NCc1c(-c2ccc(Cl)cc2Cl)ncn1Cc1c(F)cccc1Cl [Example 45a, C-[3-(2-Chloro-6-fluoro-benzyl)-5-(2,4-dichloro-phenyl)-3H-imid-azol-4-yl]-methyl-amine]
32 | 1 µM |  | Cc1ccccc1Cn1cnc(-c2ccc(Cl)cc2Cl)c1CN [Example 46a, C-[5-(2,4-Dichloro-phenyl)-3-(2-methyl-benzyl)-3H-imid-azol-4-yl]-methyl-amine]
